Assays:
[1] = target: T1, FKBP25 (Homo sapiens, UniProt Q00688); details: FKBP25, rotamase assay; cited from earlier work
T1 sequence (Q00688 1-224): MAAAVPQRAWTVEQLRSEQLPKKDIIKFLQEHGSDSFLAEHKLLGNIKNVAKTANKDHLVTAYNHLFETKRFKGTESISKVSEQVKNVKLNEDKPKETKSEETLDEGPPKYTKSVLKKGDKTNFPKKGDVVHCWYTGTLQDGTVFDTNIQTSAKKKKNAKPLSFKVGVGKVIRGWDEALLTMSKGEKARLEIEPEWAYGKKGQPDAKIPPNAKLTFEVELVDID

[2] = target: T1, FKBP25; assay: FKBP25 microparticle / rapamycin-aminodextran agglutination assay (cross-reactivity); format: binding
Protocol: A first working reagent (R1 reagent) was prepared by making 175 mM PIPES buffer, pH 7.4. To this was added rapamycin-aminodextran conjugate to give a concentration of 400 ng/mL. To this was also added polyacrylic acid to give a concentration of 1.3%.
A second working reagent (R2 reagent) was prepared as described in Example 12 and used at final concentration of 0.14% (w/v) in 50 mM MOPS buffer at pH 7.9.
A stock solution of rapamycin was made (100 μg/mL) in DMSO. Calibrators were prepared from the stock by making solution of 50, 100 and 200 ng/mL of rapamycin in 0.9% saline solution.
An assay was performed using a Hitachi 917 automated analyzer (Roche Diagnostics Corporation, Indianapolis) using a 35 μL sample volume, 180 μL of the first working reagent and 80 μL of the second working reagent (measured OD at 800 nm).
Known quantities of tacrolimus were then assayed as above. By comparing the observed reading from the rapamycin curve obtained to the actual amount of tacrolimus in the samples assayed, tacrolimus cross-reactivity was determined to be 7% in this assay. That is, a sample containing 1000 ng/ml tacrolimus gave a reading from the curve of 70 ng/ml rapamycin. Cross-reactivity is thus (70/1000)×100%=7%.

[3] = target: FKBP14; details: cited from earlier work

For `CO[C@H]1C[C@@H]2CC[C@@H](C)[C@@](O)(O2)C(=O)C(=O)N2CCCC[C@H]2C(=O)O[C@H]([C@H](C)C[C@@H]2CC[C@@H](O)[C@H](OC)C2)CC(=O)[C@H](C)/C=C(\C)[C@@H](O)[C@@H](OC)C(=O)[C@H](C)C[C@H](C)/C=C/C=C/C=C/1C` [rapamycin], the Ki [1] is listed as 0.9 nM.
For `C=CC[C@@H]1/C=C(\C)C[C@H](C)C[C@H](OC)[C@H]2O[C@@](O)(C(=O)C(=O)N3CCCC[C@H]3C(=O)O[C@H](/C(C)=C/[C@@H]3CC[C@@H](O)[C@H](OC)C3)[C@H](C)[C@@H](O)CC1=O)[C@H](C)C[C@@H]2OC` [tacrolimus], the cross-reactivity ([2]; read from rapamycin curve, Hitachi 917, OD at 800 nm) is given as 7%, the “reading from the curve as rapamycin” value ([2]; sample containing 1000 ng/ml tacrolimus) is given as 70 ng/mL and the Ki [1] is given as 200 nM. The Kd [3] was 1.8 nM and the “fold lower Kd for tacrolimus than sirolimus” value [3] was “about 20 fold”.
